logP | Compound
0.29 | Fc1cnccn1
1.71 | CSc1ccccn1
-0.8 | CN(C)C(=O)c1cnccn1
0.56 | CNc1cnccn1
0.28 | CCOC(=O)c1cnccn1
1.65 | CN(C)c1ccccn1
0.73 | COc1cnccn1
0.7 | Clc1cnccn1
0.2 | CC(=O)c1cnccn1
1.84 | CCCOc1cnccn1
1.12 | CNc1ccccn1
-0.45 | CN(C)C(=O)c1ccccn1
1.28 | CCOc1cnccn1
0.69 | CCc1cnccn1
1.17 | CSc1cnccn1
-0.03 | CC(=O)Nc1cnccn1
0.93 | CN(C)c1cnccn1
0.84 | Fc1ccccn1
-0.23 | COC(=O)c1cnccn1
1.34 | COc1ccccn1
2.38 | CCCOc1ccccn1
1.81 | CCOc1ccccn1

Compound | logP
N#Cc1cnccn1 | -0.01
